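Five concentrations, 48 hours, 96-well plates. The concentration for 50% growth inhibition is given as GI50. TGI: total growth inhibition.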
How the values were obtained:
Assay in all cases: NCI anticancer screen, dose series, 48 h
BT-549 breast = test system: BT-549 breast
A498 renal = test system: A498 renal
SK-MEL-28 melanoma = test system: SK-MEL-28 melanoma
HS 578T breast = test system: HS 578T breast
HOP-62 NSCLC = test system: HOP-62 NSCLC
EKVX NSCLC = test system: EKVX NSCLC
786-0 renal = test system: 786-0 renal
HT29 colon = test system: HT29 colon
SF-539 CNS = test system: SF-539 CNS
SF-295 CNS = test system: SF-295 CNS
MDA-MB-231 breast = test system: MDA-MB-231 breast
PC-3 prostate = test system: PC-3 prostate
CAKI-1 renal = test system: CAKI-1 renal
SK-MEL-5 melanoma = test system: SK-MEL-5 melanoma
SK-MEL-2 melanoma = test system: SK-MEL-2 melanoma
RXF 393 renal = test system: RXF 393 renal
ACHN renal = test system: ACHN renal
HCT-15 colon = test system: HCT-15 colon
M14 melanoma = test system: M14 melanoma
RPMI-8226 leukemia = test system: RPMI-8226 leukemia
TK-10 renal = test system: TK-10 renal
COLO 205 colon = test system: COLO 205 colon
HL-60(TB) leukemia = test system: HL-60(TB) leukemia
NCI-H522 lung = test system: NCI-H522 lung
HOP-92 NSCLC = test system: HOP-92 NSCLC
OVCAR-4 ovarian = test system: OVCAR-4 ovarian
HCC-2998 colon = test system: HCC-2998 colon
NCI/ADR-RES ovarian = test system: NCI/ADR-RES ovarian
DU-145 prostate = test system: DU-145 prostate
UACC-257 melanoma = test system: UACC-257 melanoma

With `O=c1ccc(Cn2c(C(F)(F)F)cc3c(Cl)ncnc32)c[nH]1` the GI50 (BT-549 breast) was 14 µM, the TGI (BT-549 breast) was 28.8 µM and the GI50 (A498 renal) was greater than 100 µM. For the same compound, the TGI (A498 renal) was greater than 100 µM, the GI50 (SK-MEL-28 melanoma) was 3.9 µM and the TGI (SK-MEL-28 melanoma) was 18.7 µM. For the same compound, the GI50 (HS 578T breast) was 8.76 µM, the TGI (HS 578T breast) was 50.4 µM and the GI50 (HOP-62 NSCLC) was 46.7 µM. For the same compound, the TGI (HOP-62 NSCLC) was greater than 100 µM, the GI50 (EKVX NSCLC) was 14.2 µM and the TGI (EKVX NSCLC) was 36 µM. It also gave a GI50 (786-0 renal) of 43.5 µM, a TGI (786-0 renal) greater than 100 µM and a GI50 (HT29 colon) of 29 µM. The TGI (HT29 colon) was greater than 100 µM, the GI50 (SF-539 CNS) was 17.3 µM and the TGI (SF-539 CNS) was 40.9 µM. For the same compound, the GI50 (SF-295 CNS) was 28.2 µM, the TGI (SF-295 CNS) was greater than 100 µM and the GI50 (MDA-MB-231 breast) was 4.65 µM. For the same compound, the TGI (MDA-MB-231 breast) was 18.2 µM, the GI50 (PC-3 prostate) was 17.1 µM and the TGI (PC-3 prostate) was 55.8 µM. It also gave a GI50 (CAKI-1 renal) of 23.5 µM, a TGI (CAKI-1 renal) of 99.4 µM and a GI50 (SK-MEL-5 melanoma) of 4.06 µM. It also gave a TGI (SK-MEL-5 melanoma) of 15 µM, a GI50 (SK-MEL-2 melanoma) of 16.9 µM and a TGI (SK-MEL-2 melanoma) of 32.6 µM. It also gave a GI50 (RXF 393 renal) of 11.2 µM, a TGI (RXF 393 renal) of 32.1 µM and a GI50 (ACHN renal) of 22.2 µM. It also gave a TGI (ACHN renal) greater than 100 µM, a GI50 (HCT-15 colon) of 2.93 µM and a TGI (HCT-15 colon) of 14.9 µM. It also gave a GI50 (M14 melanoma) of 4.08 µM, a TGI (M14 melanoma) of 22.1 µM and a GI50 (RPMI-8226 leukemia) of 23 µM. The TGI (RPMI-8226 leukemia) was greater than 100 µM, the GI50 (TK-10 renal) was greater than 100 µM and the TGI (TK-10 renal) was greater than 100 µM. For the same compound, the GI50 (COLO 205 colon) was 86.6 µM, the TGI (COLO 205 colon) was greater than 100 µM and the GI50 (HL-60(TB) leukemia) was 2.1 µM. It also gave a TGI (HL-60(TB) leukemia) of 5.97 µM, a GI50 (NCI-H522 lung) of 2.05 µM and a TGI (NCI-H522 lung) of 4.85 µM. The GI50 (HOP-92 NSCLC) was 23 µM, the TGI (HOP-92 NSCLC) was greater than 100 µM and the GI50 (OVCAR-4 ovarian) was 17.9 µM. It also gave a TGI (OVCAR-4 ovarian) of 44.6 µM, a GI50 (HCC-2998 colon) of 2.9 µM and a TGI (HCC-2998 colon) of 10.1 µM. It also gave a GI50 (NCI/ADR-RES ovarian) of 14.2 µM, a TGI (NCI/ADR-RES ovarian) of 40.3 µM and a GI50 (DU-145 prostate) of 38.7 µM. For the same compound, the TGI (DU-145 prostate) was greater than 100 µM and the GI50 (UACC-257 melanoma) was 3.18 µM.

— PubChem BioAssay (NCI)
